Source: US7803769B2 (priority 2006, dated 2010)
“Also recorded” adds a separate entry of the source. Bridge positions count the residues as written; N and C are the ends. Square brackets hold non-standard residues; d marks the D form. Ends that are not written are not given here. Peptide text beside a SMILES is read from it. 1Nal = N[C@@H](Cc1cccc2ccccc12)C(=O)O

How the values were obtained:
[1] = biological target: human Kv1.3 channel (Homo sapiens, UniProt P22001); format: cell-based
[2] = system: thapsigargin-induced IFN-g production in human whole blood; format: cell-based
[3] = system: CD40L on CD4+ T cells in human whole blood; format: cell-based
[4] = system: IL-2R on CD4+ T cells in human whole blood; format: cell-based
[5] = system: thapsigargin-induced IL-2 production in human whole blood
[6] = biological target: T1, human Kv1.3 (CHO) (Homo sapiens, UniProt P22001); test: cell-based
T1 construct: expressed in transfected cells

[7] = biological target: T2, human Kv1.1 (HEK293) (Homo sapiens, UniProt Q09470); test: cell-based
T2 construct: expressed in transfected cells; host or cells: HEK293
T2 sequence (Q09470 whole entry): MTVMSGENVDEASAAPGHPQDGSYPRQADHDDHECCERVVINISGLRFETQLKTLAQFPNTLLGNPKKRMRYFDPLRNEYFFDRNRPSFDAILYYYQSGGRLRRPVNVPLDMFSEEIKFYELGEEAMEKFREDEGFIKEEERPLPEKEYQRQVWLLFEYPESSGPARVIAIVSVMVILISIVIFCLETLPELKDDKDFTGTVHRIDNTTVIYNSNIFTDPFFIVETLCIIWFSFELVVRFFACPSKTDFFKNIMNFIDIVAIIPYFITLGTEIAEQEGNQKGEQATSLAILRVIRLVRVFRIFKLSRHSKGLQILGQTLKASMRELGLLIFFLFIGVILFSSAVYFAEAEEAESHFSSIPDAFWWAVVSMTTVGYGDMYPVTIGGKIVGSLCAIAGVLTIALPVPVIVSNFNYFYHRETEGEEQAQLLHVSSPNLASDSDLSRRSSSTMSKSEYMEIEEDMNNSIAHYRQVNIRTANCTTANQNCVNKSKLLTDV

Sequence of human Kv1.3 channel (P22001 whole entry): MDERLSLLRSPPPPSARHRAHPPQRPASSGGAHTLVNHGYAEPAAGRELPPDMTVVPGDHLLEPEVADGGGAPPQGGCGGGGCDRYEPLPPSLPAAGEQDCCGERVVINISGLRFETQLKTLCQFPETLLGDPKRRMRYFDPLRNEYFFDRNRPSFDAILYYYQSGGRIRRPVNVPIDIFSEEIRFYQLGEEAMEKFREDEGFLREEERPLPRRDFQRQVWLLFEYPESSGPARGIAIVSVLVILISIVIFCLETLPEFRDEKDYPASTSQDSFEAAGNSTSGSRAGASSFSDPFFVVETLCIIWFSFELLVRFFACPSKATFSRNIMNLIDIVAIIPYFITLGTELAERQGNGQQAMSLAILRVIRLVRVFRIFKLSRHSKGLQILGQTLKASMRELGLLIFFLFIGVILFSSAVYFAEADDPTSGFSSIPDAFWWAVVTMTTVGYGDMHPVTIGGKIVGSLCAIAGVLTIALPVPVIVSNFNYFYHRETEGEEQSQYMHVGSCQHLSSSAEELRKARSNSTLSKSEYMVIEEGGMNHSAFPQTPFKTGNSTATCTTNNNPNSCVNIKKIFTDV
T1 sequence (P22001 whole entry): as above

## Fc-L10-OSK1[K7S]: Fc-L10-OSK1 with lysine to serine at position 7
[1]
  difference in Kv1.3 potency compared to Fc-L10-OSK1: 2 fold
  fold less potent than the synthetic OSK1 toxin peptide (Kv1.3): approximately 10 fold

## Fc-L10-ShK[2-35]: human IgG1 Fc fused via 10 amino acid linker to ShK[2-35]
[1]
  block of human Kv1.3 current (in words): potently blocks human Kv1.3 current
[2]
  thapsigargin-induced IFN-g production in human whole blood (in words): suppressed; also recorded: blocked
[3]
  thapsigargin-induced upregulation of CD40L on T cells (in words): blocked
[4]
  thapsigargin-induced upregulation of IL-2R on T cells (in words): blocked

## Fc-L10-OSK1[K7S,E16K,K20D]: Fc-L10-OSK1 with K7S, E16K and K20D substitutions
[1]
  block of human Kv1.3 current (in words): significant decrease in potency as well as selectivity
  fold less potent than the synthetic OSK1 toxin peptide (Kv1.3): approximately 21 fold

## IbTx: BKCa channel inhibitor iberiotoxin, purchased from Bachem (QFTDVDCSVSKECWSVCKDLFGVDRGKCMGKKCRCYQ; Definition of Artificial Sequence: Synthetic peptide) [reference compound]
[2]
  thapsigargin-induced IFN-g production in human whole blood (in words): no significant activity
[3]
  thapsigargin-induced upregulation of CD40L on T cells (in words): no significant activity
[4]
  thapsigargin-induced upregulation of IL-2R on T cells (in words): no significant activity
[5]
  thapsigargin-induced IL-2 production in human whole blood (in words): no significant activity

## SEQ ID No: 4989: OSK1 analog without beta strand 1 (des 1-7), Table 42 (CKISRQCLKPCKDAGMRFGKCMNGKCHC-NH2; ends and bridges not checked)
[5]
  whole blood cytokine response (IL-2 and IFNg), blockade in words: still retain activity in blocking inflammation

## CC[C@H](C)[C@@H]1NC(=O)[C@H](CCCCN)NC(=O)[C@@H](NC(=O)[C@H](CCCCN)NC(=O)[C@@H](NC(=O)[C@H](CC(N)=O)NC(=O)[C@@H](NC(=O)[C@@H](NC(=O)[C@@H](NC(=O)CN)C(C)C)[C@@H](C)CC)[C@@H](C)CC)C(C)C)CSSC[C@@H]2NC(=O)[C@H](CCCCN)NC(=O)CNC(=O)[C@H](Cc3ccccc3)NC(=O)[C@H](CCCNC(=N)N)NC(=O)[C@H](CCSC)NC(=O)CNC(=O)[C@H](C)NC(=O)[C@H](CCCCN)NC(=O)[C@H](CCCCN)NC(=O)[C@@H]3CSSC[C@@H](C(=O)N[C@H](C(=O)N4CCC[C@H]4C(=O)N[C@@H](CCCCN)C(=O)O)[C@@H](C)O)NC(=O)[C@H](Cc4c[nH]cn4)NC(=O)[C@H](CSSC[C@H](NC(=O)[C@H](CCC(N)=O)NC(=O)[C@H](CCCNC(=N)N)NC(=O)[C@H](CO)NC1=O)C(=O)N[C@@H](CC(C)C)C(=O)N[C@@H](CCC(=O)O)C(=O)N1CCC[C@H]1C(=O)N3)NC(=O)[C@H](CCCCN)NC(=O)CNC(=O)[C@H](CC(N)=O)NC(=O)[C@H](C)NC2=O [OSK1[Ala-29]] (H-GVIINVKCKISRQCLEPCKKAGMRFGKCANGKCHCTPK-OH; disulfide 8-28, 14-33, 18-35)
[5]
  whole blood cytokine response (IL-2 and IFNg), blockade in words: several orders of magnitude more potent

## CC[C@H](C)[C@@H]1NC(=O)[C@H](CCCCN)NC(=O)[C@@H](NC(=O)[C@H](CCCCN)NC(=O)[C@@H](NC(=O)[C@H](CC(N)=O)NC(=O)[C@@H](NC(=O)[C@@H](NC(=O)[C@@H](NC(=O)CN)C(C)C)[C@@H](C)CC)[C@@H](C)CC)C(C)C)CSSC[C@@H]2NC(=O)[C@H](CCCCN)NC(=O)CNC(=O)[C@H](Cc3ccccc3)NC(=O)[C@H](CCCNC(=N)N)NC(=O)[C@H](CCSC)NC(=O)[C@H](Cc3cccc4ccccc34)NC(=O)[C@H](C)NC(=O)[C@H](CCCCN)NC(=O)[C@H](CCCCN)NC(=O)[C@@H]3CSSC[C@@H](C(=O)N[C@H](C(=O)N4CCC[C@H]4C(=O)N[C@@H](CCCCN)C(=O)O)[C@@H](C)O)NC(=O)[C@H](Cc4c[nH]cn4)NC(=O)[C@H](CSSC[C@H](NC(=O)[C@H](CCC(N)=O)NC(=O)[C@H](CCCNC(=N)N)NC(=O)[C@H](CO)NC1=O)C(=O)N[C@@H](CC(C)C)C(=O)N[C@@H](CCC(=O)O)C(=O)N1CCC[C@H]1C(=O)N3)NC(=O)[C@H](CCCCN)NC(=O)CNC(=O)[C@H](CC(N)=O)NC(=O)[C@H](CCSC)NC2=O [G22Nal] (H-GVIINVKCKISRQCLEPCKKA[1Nal]MRFGKCMNGKCHCTPK-OH; disulfide 8-28, 14-33, 18-35)
[6]
  IC50: > 3.33 nM
[7]
  IC50: 0.426 nM

B1: FcLoop-L2-ShK-L2: ShK inserted into the human IgG1 Fc-loop with 2-Gly linkers on both sides (protein)
chain: MDKTHTCPPCPAPELLGGPSVFLFPPKPKDTLMISRTPEVTCVVVDVSHEDPEVKFNWYVDGVEVHNAKTKPREEQYNSTYRVVSVLTVLHQDWLNGKEYKCKVSNKALPAPIEKTISKAKGQPREPQVYTLPPSRDELGGRSCIDTIPKSRCTAFQCKHSMKYRLSFCRKTCGTCGGTKNQVSLTCLVKGFYPSDIAVEWESNGQPENNYKTTPPVLDSDGSFFLYSKLTVDKSRWQQGNVFSCSVMHEALHNHYTQKSLSLSPGK
modifications: Definition of Artificial Sequence: Synthetic protein
[5]
  whole blood cytokine response (IL-2 and IFNg), blockade in words: potent blockade of the whole blood cytokine response in this assay, with IC50 values in the pM range

B2: L2-6H-L3-CH2-L10-OsK1 (1-38) (protein)
chain: MGGHHHHHHGGGPSVFLFPPKPKDTLMISRTPEVTCVVVDVSHEDPEVKFNWYVDGVEVHNAKTKPREEQYNSTYRVVSVLTVLHQDWLNGKEYKCKVSNKALPAPIEKTISGGGGSGGGGSGVIINVKCKISRQCLEPCKKAGMRFGKCMNGKCHCTPK
[2]; read-out: WB/IFNg (IC50)
  IC50: 55.2 nM
[5]; read-out: WB/IL-2 (IC50)
  IC50: 38.5 nM

B3: FcLoop-L2-OsK1-L2: OsK1 inserted into the human IgG1 Fc-loop with 2-Gly linkers on both sides (protein)
chain: MDKTHTCPPCPAPELLGGPSVFLFPPKPKDTLMISRTPEVTCVVVDVSHEDPEVKFNWYVDGVEVHNAKTKPREEQYNSTYRVVSVLTVLHQDWLNGKEYKCKVSNKALPAPIEKTISKAKGQPREPQVYTLPPSRDELGGGVIINVKCKISRQCLEPCKKAGMRFGKCMNGKCHCTPKGGTKNQVSLTCLVKGFYPSDIAVEWESNGQPENNYKTTPPVLDSDGSFFLYSKLTVDKSRWQQGNVFSCSVMHEALHNHYTQKSLSLSPGK
modifications: Definition of Artificial Sequence: Synthetic protein
[5]
  whole blood cytokine response (IL-2 and IFNg), blockade in words: potent blockade of the whole blood cytokine response in this assay, with IC50 values in the pM range
